In general, inhibition refers to the relative decrease from the control value, in per cent. As a reminder, the Ki is the equilibrium dissociation constant of an inhibitor or competing ligand from its target.

For 38 molecules, inhibition and Ki results are on record in patent US7998978B2 (Pfizer Inc., priority 2006, dated 2011).

A value given as a limit tells only on which side of the number the result lay.

T1 sequence (P45983 1-364): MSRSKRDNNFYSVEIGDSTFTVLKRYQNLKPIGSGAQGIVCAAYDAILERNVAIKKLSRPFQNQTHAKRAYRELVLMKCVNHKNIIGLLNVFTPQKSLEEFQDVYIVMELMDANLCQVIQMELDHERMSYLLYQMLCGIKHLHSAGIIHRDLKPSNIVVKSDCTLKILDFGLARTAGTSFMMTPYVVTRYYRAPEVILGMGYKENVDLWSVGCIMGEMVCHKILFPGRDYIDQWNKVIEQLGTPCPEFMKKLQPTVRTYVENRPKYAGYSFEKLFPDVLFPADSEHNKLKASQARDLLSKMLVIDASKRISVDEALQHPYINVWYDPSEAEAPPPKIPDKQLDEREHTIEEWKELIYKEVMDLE

One test concerns the target T1, JNK1α1 (Homo sapiens, UniProt P45983).
T1 construct: catalytic domain containing amino acids 1-364 and N-terminal hexahistidine tag; hexahistidine (His6) (N); made in house; host or cells: E. coli BL21 (DE3)
The test is described as follows: Coupled spectrophotometric (PK/LDH) JNK1α1 assay: % inhibition and Ki determination. The class given is biochemical. To be noted: @1 uM; read-out: % Inhibition JNK-1. Summed up:
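Initial rates were taken from the absorbance decrease at 340 nm at 30° C. Ki was fitted with a tight-binding model over 11 concentrations (top 100 μM); single-point inhibition was tested at 1 or 10 μM.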
In the case of `O=C(NCCO)c1ccc2cnc(NC3CCCCC3)nc2c1` [Example 426, 2-(cyclohexylamino)-N-(2-hydroxyethyl)quinazoline-7-carboxamide], the inhibition at 1 µM was 23%.
Take `CN1C(=O)OC[C@@H]1COc1ccc2cnc(N[C@H]3CC[C@H](O)CC3)nc2c1` [Example 289, 4-[({2-[(trans-4-hydroxycyclohexyl)amino]quinazolin-7-yl}oxy)methyl]-3-methyl-1,3-oxazolidin-2-one]: the inhibition at 1 µM came to 69%.
Same read-out and setting: the same measure for `CN1CCC[C@H]1COc1ccc2cnc(N[C@H]3CC[C@H](O)CC3)nc2c1` [Example 273, trans-4-[(7-{[(2S)-1-methylpyrrolidin-2-yl]methoxy}quinazolin-2-yl)amino]cyclohexanol]: 24%.
The same measure, in the same setting: the same measure for `CCc1ccc(C)nc1NC(=O)c1cccc2cnc(N[C@H]3CC[C@H](O)CC3)nc12` [Example 314, N-(3-ethyl-6-methylpyridin-2-yl)-2-[(trans-4-hydroxycyclohexyl)amino]quinazoline-8-carboxamide]: 11%; for `O=C1OCCN1CCOc1ccc2cnc(N[C@H]3CC[C@H](O)CC3)nc2c1` [Example 282, 3-[2-({2-[(trans-4-hydroxycyclohexyl)amino]quinazolin-7-yl}oxy)ethyl]-1,3-oxazolidin-2-one]: 71%.
The same measure, in the same setting: next, `O=C(N[C@@H]1COC[C@H]1O)c1ccc2cnc(NC3CCCC3)nc2c1` [Example 435, 2-(cyclopentylamino)-N-[(3R,4S)-4-hydroxytetrahydrofuran-3-yl]quinazoline-7-carboxamide]: 22%.
`O=C(NCCn1ccccc1=O)c1cccc2cnc(N[C@H]3CC[C@H](O)CC3)nc12` [Example 528, 2-[(trans-4-hydroxycyclohexyl)amino]-N-[2-(2-oxopyridin-1(2H)-yl)ethyl]quinazoline-8-carboxamide]: the inhibition at 1 µM is 26%.
Same read-out and setting: the same measure for `O=C(NCCO)c1ccc2cnc(NC3CCCC3)nc2c1` [Example 427, 2-(cyclopentylamino)-N-(2-hydroxyethyl)quinazoline-7-carboxamide]: 21%.

Still in this test, the particulars now being: @10 uM; read-out: % Inhibition JNK-1.
As for `CC(C)c1noc(CNC(=O)c2cccc3cnc(N[C@H]4CC[C@H](O)CC4)nc23)n1` [Example 500, 2-[(trans-4-hydroxycyclohexyl)amino]-N-[(3-isopropyl-1,2,4-oxadiazol-5-yl)methyl]quinazoline-8-carboxamide], the inhibition at 10 µM stood at 38%.
Still for that read-out and setting: next, `CCN(CC)CCOc1cccc2cnc(N[C@H]3CC[C@H](O)CC3)nc12` [Example 261, trans-4-({8-[2-(diethylamino)ethoxy]quinazolin-2-yl}amino)cyclohexanol]: 42%.

The test is the same for the next values; noted with them: JNK-1.
On to `CC[C@H](C)[C@@H](CO)NC(=O)c1ccc2cnc(NC3CCCCC3)nc2c1` [Example 380, 2-(cyclohexylamino)-N-[(1S,2S)-1-(hydroxymethyl)-2-methylbutyl]quinazoline-7-carboxamide], for which the inhibition constant (Ki) was 187 nM.
Same read-out and setting: the same measure for `O=C(NCCN1CCCCC1=O)c1ccc2cnc(N[C@H]3CC[C@H](O)CC3)nc2c1` [Example 370, 2-[(trans-4-hydroxycyclohexyl)amino]-N-(2-(2-oxopiperidin-1-yl)ethyl]quinazoline-7-carboxamide]: 2470 nM.
Still for that read-out and setting: the same measure for `O=C(Cc1ccc(C(F)(F)F)cc1)Nc1cc2cc(-c3cn[nH]c3)ccc2cn1` [Example 45, N-[6-(1H-pyrazol-4-yl)isoquinolin-3-yl]-2-[4-(trifluoromethyl)phenyl]acetamide]: 21 nM; for `O=C(NC(CO)c1ccccn1)c1ccc2cnc(N[C@H]3CC[C@H](O)CC3)nc2c1` (stereo partly drawn) [Example 100, 2-[(trans-4-hydroxycyclohexyl)amino]-N-(2-hydroxy-1-pyridin-2-ylethyl)quinazoline-7-carboxamide]: 120 nM.
On the same count and under the same terms, next, `O[C@H]1CC[C@H](Nc2ncc3cccc(OC4CCOC4)c3n2)CC1` (stereo partly drawn) [Example 171, trans-4-{[8-(tetrahydrofuran-3-yloxy)quinazolin-2-yl]amino}cyclohexanol]: 483 nM.
In the case of `O=C(NC1CCS(=O)(=O)C1)c1cccc2cnc(N[C@H]3CC[C@H](O)CC3)nc12` (stereo partly drawn) [Example 119, N-(1,1-dioxidotetrahydro-3-thienyl)-2-[(trans-4-hydroxycyclohexyl)amino]quinazoline-8-carboxamide], the Ki came to 377 nM.
Molecule `C[C@@H](CO)NC(=O)c1ccc2cnc(NC3CCCC3)nc2c1` [Example 418, 2-(cyclopentylamino)-N-[(1S)-2-hydroxy-1-methylethyl]quinazoline-7-carboxamide] yielded an inhibitory constant (Ki) of 1720 nM.
As to `O[C@H]1CC[C@H](Nc2ncc3cccc(O[C@H]4CCOC4)c3n2)CC1` [Example 168, trans-4-({8-[(3S)-tetrahydrofuran-3-yloxy]quinazolin-2-yl}amino)cyclohexanol], the Ki was 574 nM.
Same read-out and setting: the same measure for `CC(=O)N[C@H]1CC[C@H](Nc2ncc3cccc(C(=O)N[C@@H]4CCC[C@H]4O)c3n2)CC1` (relative stereo) [Example 138, 2-{[trans-4-(acetylamino)cyclohexyl]amino}-N-[(trans)-2-hydroxycyclopentyl]quinazoline-8-carboxamide]: 950 nM.
For the molecule `CCC[C@@H](CO)NC(=O)c1ccc2cnc(NC3CCCC3)nc2c1` [Example 387, 2-(cyclopentylamino)-N-[(1S)-1-(hydroxymethyl)butyl]quinazoline-7-carboxamide], the affinity corresponds to a Ki of 297 nM.
On the same count and under the same terms, next, `O=C(NCCO)c1cccc2cnc(N[C@H]3CC[C@H](O)CC3)nc12` [Example 108, 2-[(trans-4-hydroxycyclohexyl)amino]-N-(2-hydroxyethyl)quinazoline-8-carboxamide]: 126 nM.
Consider `CC(=O)N1CCC(CNC(=O)c2ccc3cnc(N[C@H]4CC[C@H](O)CC4)nc3c2)CC1` [Example 91, N-[(1-acetylpiperidin-4-yl)methyl]-2-[(trans-4-hydroxycyclohexyl)amino]quinazoline-7-carboxamide], for which the Ki worked out at 643 nM.
Regarding `CC(C)N[C@H]1CC[C@H](Nc2ncc3cccc(OC4CCOCC4)c3n2)CC1` [Example 191, trans-N-isopropyl-N′-[8-(tetrahydro-2H-pyran-4-yloxy)quinazolin-2-yl]cyclohexane-1,4-diamine], the Ki was found to be 698 nM.
Same read-out and setting: the same measure for `O=C(N[C@H]1CC[C@@H](CO)CC1)c1cccc2cnc(N[C@H]3CC[C@H](O)CC3)nc12` [Example 466, 2-[(trans-4-hydroxycyclohexyl)amino]-N-[cis-4-(hydroxymethyl)cyclohexyl]quinazoline-8-carboxamide]: 962 nM; for `C[C@@H](CO)NC(=O)c1ccc2cnc(N[C@H]3CC[C@H](O)CC3)nc2c1` [Example 403, 2-[(trans-4-hydroxycyclohexyl)amino]-N-[(1S)-2-hydroxy-1-methylethyl]quinazoline-7-carboxamide]: 637 nM.
Same read-out and setting: next, `CC(C(=O)Nc1cc2cc(-c3cn[nH]c3)ccc2cn1)c1ccccc1` (centres unmarked) [Example 8, 2-phenyl-N-[6-(1H-pyrazol-4-yl)isoquinolin-3-yl]propanamide]: more than 50 nM; `O=C(NCc1ccc(F)cc1)c1ccc2cnc(N[C@H]3CC[C@H](O)CC3)nc2c1` [Example 88, N-(4-fluorobenzyl)-2-[(trans-4-hydroxycyclohexyl)amino]quinazoline-7-carboxamide]: 114 nM; `O=C(N[C@H]1c2ccccc2C[C@H]1O)c1cccc2cnc(N[C@H]3CC[C@H](O)CC3)nc12` [Example 463, 2-[(trans-4-hydroxycyclohexyl)amino]-N-[(1S,2R)-2-hydroxy-2,3-dihydro-1H-inden-1-yl]quinazoline-8-carboxamide]: 486 nM.
Still for that read-out and setting: the same measure for `COc1ccc2[nH]c(C)c(CC(=O)Nc3cc4cc(-c5cn[nH]c5)ccc4cn3)c2c1` [Example 2, 2-(5-methoxy-2-methyl-1H-indol-3-yl)-N-[6-(1H-pyrazol-4-yl)isoquinolin-3-yl]acetamide]: 77 nM; for `O[C@H]1CC[C@H](Nc2ncc3cccc(OC4CCOCC4)c3n2)CC1` [Example 169, trans-4-{[8-(tetrahydro-2H-pyran-4-yloxy)quinazolin-2-yl]amino}cyclohexanol]: 231 nM.
Molecule `CCC[C@@H](CO)NC(=O)c1ccc2cnc(NC3CCC3)nc2c1` [Example 398, 2-(cyclobutylamino)-N-[(1S)-1-(hydroxymethyl)butyl]quinazoline-7-carboxamide] displayed a Ki of 447 nM.
As to `CC(=O)NC1CCC(Nc2cc3cc(-c4cn[nH]c4)ccc3cn2)CC1` (centres unmarked) [Example 217, N-(4-{[6-(1H-pyrazol-4-yl)isoquinolin-3-yl]amino}cyclohexyl)acetamide], the inhibition constant Ki came out at 775 nM.
The same measure, in the same setting: the same measure for `CCCC(CO)NC(=O)c1ccc2cnc(N[C@H]3CC[C@H](O)CC3)nc2c1` (stereo partly drawn) [Example 332, 2-[(trans-4-hydroxycyclohexyl)amino]-N-[1-(hydroxymethyl)butyl]quinazoline-7-carboxamide]: 424 nM; for `CC(C)C(=O)Nc1cc2cc(-c3cn[nH]c3)ccc2cn1` [Example 16, 2-methyl-N-[6-(1H-pyrazol-4-yl)isoquinolin-3-yl]propanamide]: 31 nM; for `c1cnc2ccc(CNc3cc4cc(-c5cn[nH]c5)ccc4cn3)cc2c1` [Example 221, 6-(1H-pyrazol-4-yl)-N-(quinolin-6-ylmethyl)isoquinolin-3-amine]: 2220 nM.
With `O[C@H]1CC[C@H](Nc2ncc3ccc(O[C@H]4CCOC4)cc3n2)CC1` [Example 160, trans-4-({7-[(3S)-tetrahydrofuran-3-yloxy]quinazolin-2-yl}amino)cyclohexanol], affinity was put at a Ki of 70 nM.
Turning to `O=C(NC1(CO)CCCC1)c1ccc2cnc(NC3CCCCC3)nc2c1` [Example 401, 2-(cyclohexylamino)-N-[1-(hydroxymethyl)cyclopentyl]quinazoline-7-carboxamide], the Ki was 490 nM.
The same measure, in the same setting: next, `O=C(CCc1cn2cccnc2n1)Nc1cc2cc(-c3cn[nH]c3)ccc2cn1` [Example 18, 3-imidazo[1,2-a]pyrimidin-2-yl-N-[6-(1H-pyrazol-4-yl)isoquinolin-3-yl]propanamide]: 32 nM.
